Test results reported in ChEMBL document CHEMBL3621113, “Strategies for the Discovery of Target-Specific or Isoform-Selective Modulators” (J Med Chem, 2015).

Experiments:
[1] = molecular target: Tyrosine-protein kinase JAK1 (Homo sapiens, UniProt P23458); experiment: Inhibition of JAK1 (unknown origin) after 20 mins by radiometric analysis in presence of [gamma33P]-ATP
[2] = molecular target: Non-receptor tyrosine-protein kinase TYK2 (Homo sapiens, UniProt P29597); experiment: Inhibition of TYK2 (unknown origin) after 20 mins by radiometric analysis in presence of [gamma33P]-ATP
[3] = molecular target: T1, Tyrosine-protein kinase JAK3 (Homo sapiens, UniProt P52333); experiment: Inhibition of JAK3 (unknown origin) after 20 mins by radiometric analysis in presence of [gamma33P]-ATP
T1 sequence (P52333 whole entry): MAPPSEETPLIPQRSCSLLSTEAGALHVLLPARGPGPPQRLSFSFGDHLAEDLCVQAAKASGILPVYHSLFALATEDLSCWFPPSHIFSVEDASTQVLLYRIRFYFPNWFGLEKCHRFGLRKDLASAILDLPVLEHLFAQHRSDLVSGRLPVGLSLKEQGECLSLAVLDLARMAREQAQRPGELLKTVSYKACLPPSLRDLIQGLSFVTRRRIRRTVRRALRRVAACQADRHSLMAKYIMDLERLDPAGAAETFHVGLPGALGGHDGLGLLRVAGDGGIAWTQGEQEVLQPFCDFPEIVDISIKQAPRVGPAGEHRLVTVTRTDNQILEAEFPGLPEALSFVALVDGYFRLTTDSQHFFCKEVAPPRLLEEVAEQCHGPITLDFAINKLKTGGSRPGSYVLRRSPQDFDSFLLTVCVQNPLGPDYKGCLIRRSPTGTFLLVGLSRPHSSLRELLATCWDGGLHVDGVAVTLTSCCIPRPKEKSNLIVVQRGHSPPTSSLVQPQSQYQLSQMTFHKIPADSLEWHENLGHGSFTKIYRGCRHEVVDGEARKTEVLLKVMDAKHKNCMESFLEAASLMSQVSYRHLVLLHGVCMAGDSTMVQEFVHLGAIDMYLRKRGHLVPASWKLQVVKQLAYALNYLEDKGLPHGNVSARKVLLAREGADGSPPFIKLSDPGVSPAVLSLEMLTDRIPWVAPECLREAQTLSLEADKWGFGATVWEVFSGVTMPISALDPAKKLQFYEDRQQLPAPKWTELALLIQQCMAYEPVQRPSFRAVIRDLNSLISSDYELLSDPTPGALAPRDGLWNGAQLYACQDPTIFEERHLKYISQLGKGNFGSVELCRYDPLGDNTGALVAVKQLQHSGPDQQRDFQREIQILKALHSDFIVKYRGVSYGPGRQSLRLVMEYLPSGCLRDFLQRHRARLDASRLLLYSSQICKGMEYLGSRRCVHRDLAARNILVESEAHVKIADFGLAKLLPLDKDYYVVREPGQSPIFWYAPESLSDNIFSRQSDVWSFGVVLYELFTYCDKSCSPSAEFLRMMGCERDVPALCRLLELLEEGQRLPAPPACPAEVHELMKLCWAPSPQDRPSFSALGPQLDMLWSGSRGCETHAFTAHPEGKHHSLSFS

[4] = molecular target: Tyrosine-protein kinase JAK2 (Homo sapiens, UniProt O60674); experiment: Inhibition of JAK2 (unknown origin) after 20 mins by radiometric analysis in presence of [gamma33P]-ATP
[5] = molecular target: Phosphatidylinositol 4,5-bisphosphate 3-kinase catalytic subunit gamma isoform (Homo sapiens, UniProt P48736); experiment: Inhibition of recombinant human PI3Kgamma by TR-FRET analysis
[6] = molecular target: T2, Phosphatidylinositol 4,5-bisphosphate 3-kinase catalytic subunit delta isoform (Homo sapiens, UniProt O00329); experiment: Inhibition of recombinant human PI3Kdelta by TR-FRET analysis
T2 sequence (O00329 whole entry): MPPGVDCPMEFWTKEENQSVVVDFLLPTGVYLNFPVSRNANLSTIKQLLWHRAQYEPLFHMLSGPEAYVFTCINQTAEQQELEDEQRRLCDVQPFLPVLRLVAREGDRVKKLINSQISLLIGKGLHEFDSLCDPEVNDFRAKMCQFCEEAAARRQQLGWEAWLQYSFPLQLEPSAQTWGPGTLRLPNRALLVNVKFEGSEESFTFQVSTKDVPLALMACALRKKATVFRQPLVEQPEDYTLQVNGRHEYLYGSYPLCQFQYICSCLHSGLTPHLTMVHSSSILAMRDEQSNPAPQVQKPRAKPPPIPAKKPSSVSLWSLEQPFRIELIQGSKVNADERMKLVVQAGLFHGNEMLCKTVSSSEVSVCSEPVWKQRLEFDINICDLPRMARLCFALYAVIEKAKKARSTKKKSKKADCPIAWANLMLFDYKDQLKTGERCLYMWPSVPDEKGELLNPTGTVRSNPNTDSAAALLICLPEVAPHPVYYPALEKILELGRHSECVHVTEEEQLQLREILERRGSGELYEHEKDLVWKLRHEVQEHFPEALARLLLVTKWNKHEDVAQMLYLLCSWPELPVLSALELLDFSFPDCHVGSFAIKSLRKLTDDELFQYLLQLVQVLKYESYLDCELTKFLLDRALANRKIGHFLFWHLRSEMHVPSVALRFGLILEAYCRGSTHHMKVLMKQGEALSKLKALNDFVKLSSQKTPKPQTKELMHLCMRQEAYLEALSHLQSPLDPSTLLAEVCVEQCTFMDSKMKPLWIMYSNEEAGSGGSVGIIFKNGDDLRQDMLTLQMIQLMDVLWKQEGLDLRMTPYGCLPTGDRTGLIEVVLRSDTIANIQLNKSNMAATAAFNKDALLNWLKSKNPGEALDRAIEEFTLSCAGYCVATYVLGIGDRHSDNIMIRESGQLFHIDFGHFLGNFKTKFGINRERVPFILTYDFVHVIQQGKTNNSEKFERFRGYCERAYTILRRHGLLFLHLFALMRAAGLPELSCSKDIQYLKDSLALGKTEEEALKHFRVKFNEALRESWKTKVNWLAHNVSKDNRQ

[7] = molecular target: Serine/threonine-protein kinase mTOR (Homo sapiens, UniProt P42345); experiment: Inhibition of recombinant human mTOR by TR-FRET analysis
[8] = molecular target: Phosphatidylinositol 4,5-bisphosphate 3-kinase catalytic subunit beta isoform (Homo sapiens, UniProt P42338); experiment: Inhibition of recombinant human PI3Kbeta by TR-FRET analysis
[9] = molecular target: T3, Amine oxidase [flavin-containing] A (Homo sapiens, UniProt P21397); experiment: Inhibition of MAO-A (unknown origin)
T3 sequence (P21397 whole entry): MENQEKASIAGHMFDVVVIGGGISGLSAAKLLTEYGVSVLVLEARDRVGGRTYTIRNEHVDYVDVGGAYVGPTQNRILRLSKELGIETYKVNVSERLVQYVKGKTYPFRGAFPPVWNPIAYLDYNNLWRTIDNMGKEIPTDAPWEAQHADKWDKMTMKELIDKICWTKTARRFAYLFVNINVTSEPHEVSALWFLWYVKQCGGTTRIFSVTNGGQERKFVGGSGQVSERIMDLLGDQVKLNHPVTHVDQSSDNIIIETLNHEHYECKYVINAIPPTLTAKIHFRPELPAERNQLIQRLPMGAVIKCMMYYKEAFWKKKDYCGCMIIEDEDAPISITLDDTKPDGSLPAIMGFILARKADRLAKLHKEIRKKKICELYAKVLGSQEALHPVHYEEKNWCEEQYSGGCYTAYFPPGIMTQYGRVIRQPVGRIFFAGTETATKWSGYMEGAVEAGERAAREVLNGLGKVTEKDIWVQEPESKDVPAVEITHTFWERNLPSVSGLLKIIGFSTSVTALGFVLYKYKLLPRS

[10] = molecular target: T4, Amine oxidase [flavin-containing] B (Homo sapiens, UniProt P27338)
T4 sequence (P27338 whole entry): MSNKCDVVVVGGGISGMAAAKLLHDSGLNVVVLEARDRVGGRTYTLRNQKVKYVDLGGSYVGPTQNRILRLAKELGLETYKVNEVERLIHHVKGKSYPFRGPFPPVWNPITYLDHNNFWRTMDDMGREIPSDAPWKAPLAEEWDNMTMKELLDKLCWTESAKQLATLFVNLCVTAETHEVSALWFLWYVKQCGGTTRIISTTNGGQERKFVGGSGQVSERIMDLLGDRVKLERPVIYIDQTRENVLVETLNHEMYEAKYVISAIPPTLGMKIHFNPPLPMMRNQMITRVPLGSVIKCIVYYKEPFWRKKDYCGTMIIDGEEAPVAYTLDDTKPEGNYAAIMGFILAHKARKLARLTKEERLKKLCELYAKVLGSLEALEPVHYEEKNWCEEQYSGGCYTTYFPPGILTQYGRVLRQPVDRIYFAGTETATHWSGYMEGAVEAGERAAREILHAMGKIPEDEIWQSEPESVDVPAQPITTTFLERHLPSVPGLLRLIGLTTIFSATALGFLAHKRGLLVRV
Description: Inhibition of human MAO-B using (4S)-4,5-dihydro-2-(6-hydroxybenzothiazolyl)-4-thiazolecarboxylic acid as substrate after 60 mins by MAO-Glo assay

[11] = molecular target: T3, Amine oxidase [flavin-containing] A
Description: Inhibition of human MAO-A using (4S)-4,5-dihydro-2-(6-hydroxybenzothiazolyl)-4-thiazolecarboxylic acid as substrate after 60 mins by MAO-Glo assay

[12] = molecular target: T5, Histone deacetylase 8 (Homo sapiens, UniProt Q9BY41); experiment: Inhibition of HDAC8 in human HeLa nuclear extracts by fluorometric assay
T5 sequence (Q9BY41 whole entry): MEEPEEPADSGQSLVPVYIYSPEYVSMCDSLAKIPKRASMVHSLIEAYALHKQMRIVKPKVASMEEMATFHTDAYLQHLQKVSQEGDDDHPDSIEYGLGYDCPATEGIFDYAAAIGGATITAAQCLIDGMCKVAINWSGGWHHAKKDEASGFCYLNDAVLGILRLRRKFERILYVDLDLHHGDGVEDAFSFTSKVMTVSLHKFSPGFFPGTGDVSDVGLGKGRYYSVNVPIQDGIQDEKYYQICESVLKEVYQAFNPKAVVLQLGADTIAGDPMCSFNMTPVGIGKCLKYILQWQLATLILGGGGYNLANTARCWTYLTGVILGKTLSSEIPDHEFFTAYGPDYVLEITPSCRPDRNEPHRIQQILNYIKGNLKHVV

[13] = molecular target: Histone deacetylase 4 (Homo sapiens, UniProt P56524); experiment: Inhibition of HDAC4 in human HeLa nuclear extracts by fluorometric assay
[14] = molecular target: T6, Protein deacetylase HDAC6 (Homo sapiens, UniProt Q9UBN7); experiment: Inhibition of HDAC6 in human HeLa nuclear extracts by fluorometric assay
T6 sequence (Q9UBN7 whole entry): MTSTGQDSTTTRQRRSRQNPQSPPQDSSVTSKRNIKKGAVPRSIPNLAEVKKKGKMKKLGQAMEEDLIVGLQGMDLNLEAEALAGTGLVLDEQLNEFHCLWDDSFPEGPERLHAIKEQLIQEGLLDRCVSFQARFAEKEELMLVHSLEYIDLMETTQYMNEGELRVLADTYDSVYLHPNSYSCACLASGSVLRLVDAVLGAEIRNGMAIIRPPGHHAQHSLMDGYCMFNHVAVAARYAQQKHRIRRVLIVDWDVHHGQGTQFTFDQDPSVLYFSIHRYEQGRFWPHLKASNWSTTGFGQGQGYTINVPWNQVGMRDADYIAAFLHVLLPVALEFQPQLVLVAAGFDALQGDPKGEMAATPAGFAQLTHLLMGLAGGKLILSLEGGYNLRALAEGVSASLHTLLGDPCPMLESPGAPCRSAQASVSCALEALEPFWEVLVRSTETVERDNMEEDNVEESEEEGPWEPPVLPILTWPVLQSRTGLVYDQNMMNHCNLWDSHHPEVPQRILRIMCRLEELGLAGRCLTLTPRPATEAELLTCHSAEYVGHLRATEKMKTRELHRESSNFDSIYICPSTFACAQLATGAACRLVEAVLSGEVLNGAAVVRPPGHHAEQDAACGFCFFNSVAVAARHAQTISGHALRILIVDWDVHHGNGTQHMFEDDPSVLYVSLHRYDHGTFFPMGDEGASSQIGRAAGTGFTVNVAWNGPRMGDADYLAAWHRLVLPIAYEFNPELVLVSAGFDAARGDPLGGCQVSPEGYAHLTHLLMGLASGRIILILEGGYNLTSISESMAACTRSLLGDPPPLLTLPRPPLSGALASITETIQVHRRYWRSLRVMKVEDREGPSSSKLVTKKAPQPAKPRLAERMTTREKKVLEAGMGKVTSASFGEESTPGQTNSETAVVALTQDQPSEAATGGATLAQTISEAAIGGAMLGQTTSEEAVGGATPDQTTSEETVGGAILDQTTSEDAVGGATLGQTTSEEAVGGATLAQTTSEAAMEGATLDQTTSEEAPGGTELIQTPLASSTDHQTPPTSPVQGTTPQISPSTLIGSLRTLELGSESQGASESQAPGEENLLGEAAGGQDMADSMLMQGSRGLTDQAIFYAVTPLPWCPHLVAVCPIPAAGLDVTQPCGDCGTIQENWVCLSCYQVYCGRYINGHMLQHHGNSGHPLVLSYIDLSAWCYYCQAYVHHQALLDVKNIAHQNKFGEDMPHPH

[15] = molecular target: Histone deacetylase 5 (Homo sapiens, UniProt Q9UQL6)
Sequence of Histone deacetylase 5 (Q9UQL6 whole entry): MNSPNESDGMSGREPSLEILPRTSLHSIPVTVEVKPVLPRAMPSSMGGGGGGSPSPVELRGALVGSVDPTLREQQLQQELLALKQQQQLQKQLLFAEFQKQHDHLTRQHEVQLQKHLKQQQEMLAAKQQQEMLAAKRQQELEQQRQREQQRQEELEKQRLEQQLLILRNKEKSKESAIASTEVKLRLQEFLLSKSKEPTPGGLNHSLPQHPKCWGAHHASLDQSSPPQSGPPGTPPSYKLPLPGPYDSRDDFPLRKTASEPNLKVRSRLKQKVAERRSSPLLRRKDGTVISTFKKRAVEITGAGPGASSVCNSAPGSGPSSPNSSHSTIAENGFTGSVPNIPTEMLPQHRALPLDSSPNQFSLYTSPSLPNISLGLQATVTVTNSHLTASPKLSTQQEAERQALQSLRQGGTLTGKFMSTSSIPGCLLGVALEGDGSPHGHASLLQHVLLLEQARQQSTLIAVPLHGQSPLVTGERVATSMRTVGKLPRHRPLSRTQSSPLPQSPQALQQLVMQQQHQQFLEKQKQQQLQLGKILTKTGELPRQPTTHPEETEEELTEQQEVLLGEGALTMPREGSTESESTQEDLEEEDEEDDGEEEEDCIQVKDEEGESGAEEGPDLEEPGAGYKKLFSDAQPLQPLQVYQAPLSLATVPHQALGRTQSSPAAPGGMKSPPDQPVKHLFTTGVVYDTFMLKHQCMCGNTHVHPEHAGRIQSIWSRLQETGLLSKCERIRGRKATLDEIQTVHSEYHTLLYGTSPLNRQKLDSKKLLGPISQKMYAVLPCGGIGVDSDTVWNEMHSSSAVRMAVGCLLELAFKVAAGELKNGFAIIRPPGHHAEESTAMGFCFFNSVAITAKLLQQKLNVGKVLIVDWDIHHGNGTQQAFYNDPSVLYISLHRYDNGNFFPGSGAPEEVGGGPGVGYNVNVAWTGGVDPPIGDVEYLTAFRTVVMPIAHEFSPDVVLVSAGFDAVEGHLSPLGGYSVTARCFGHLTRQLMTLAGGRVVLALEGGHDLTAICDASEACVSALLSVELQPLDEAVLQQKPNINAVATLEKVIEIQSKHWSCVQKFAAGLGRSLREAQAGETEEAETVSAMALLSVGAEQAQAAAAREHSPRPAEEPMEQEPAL
Description: Inhibition of HDAC5 in human HeLa nuclear extracts by fluorometric assay

Sequence of Phosphatidylinositol 4,5-bisphosphate 3-kinase catalytic subunit beta isoform (P42338 whole entry, canonical isoform): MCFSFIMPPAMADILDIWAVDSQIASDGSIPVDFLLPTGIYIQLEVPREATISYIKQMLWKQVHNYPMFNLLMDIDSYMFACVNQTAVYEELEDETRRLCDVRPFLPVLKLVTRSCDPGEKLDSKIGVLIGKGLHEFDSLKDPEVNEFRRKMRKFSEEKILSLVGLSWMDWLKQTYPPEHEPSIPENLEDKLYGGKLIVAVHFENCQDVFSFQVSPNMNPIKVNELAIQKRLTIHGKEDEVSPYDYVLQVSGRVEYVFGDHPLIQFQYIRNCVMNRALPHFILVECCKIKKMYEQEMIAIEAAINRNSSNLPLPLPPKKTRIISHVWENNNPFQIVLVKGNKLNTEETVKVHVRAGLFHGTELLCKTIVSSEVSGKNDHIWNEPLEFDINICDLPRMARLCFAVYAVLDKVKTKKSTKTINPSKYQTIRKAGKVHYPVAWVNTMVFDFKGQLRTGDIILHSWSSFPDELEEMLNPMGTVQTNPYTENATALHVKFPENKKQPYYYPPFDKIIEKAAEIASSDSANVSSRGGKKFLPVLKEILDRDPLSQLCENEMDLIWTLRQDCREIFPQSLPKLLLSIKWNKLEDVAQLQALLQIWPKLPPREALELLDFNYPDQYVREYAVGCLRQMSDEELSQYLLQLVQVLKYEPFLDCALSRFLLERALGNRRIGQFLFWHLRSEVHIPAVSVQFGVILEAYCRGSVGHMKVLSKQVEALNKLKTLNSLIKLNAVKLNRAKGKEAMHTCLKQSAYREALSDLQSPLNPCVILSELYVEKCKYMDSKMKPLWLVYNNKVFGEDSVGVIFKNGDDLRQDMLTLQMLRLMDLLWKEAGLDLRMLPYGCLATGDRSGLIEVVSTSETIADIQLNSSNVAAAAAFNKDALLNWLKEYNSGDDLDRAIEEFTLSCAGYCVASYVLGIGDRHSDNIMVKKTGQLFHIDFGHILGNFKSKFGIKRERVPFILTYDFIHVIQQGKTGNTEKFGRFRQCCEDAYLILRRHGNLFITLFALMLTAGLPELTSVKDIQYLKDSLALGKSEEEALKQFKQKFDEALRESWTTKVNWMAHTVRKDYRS
Sequence of Phosphatidylinositol 4,5-bisphosphate 3-kinase catalytic subunit gamma isoform (P48736 whole entry, canonical isoform): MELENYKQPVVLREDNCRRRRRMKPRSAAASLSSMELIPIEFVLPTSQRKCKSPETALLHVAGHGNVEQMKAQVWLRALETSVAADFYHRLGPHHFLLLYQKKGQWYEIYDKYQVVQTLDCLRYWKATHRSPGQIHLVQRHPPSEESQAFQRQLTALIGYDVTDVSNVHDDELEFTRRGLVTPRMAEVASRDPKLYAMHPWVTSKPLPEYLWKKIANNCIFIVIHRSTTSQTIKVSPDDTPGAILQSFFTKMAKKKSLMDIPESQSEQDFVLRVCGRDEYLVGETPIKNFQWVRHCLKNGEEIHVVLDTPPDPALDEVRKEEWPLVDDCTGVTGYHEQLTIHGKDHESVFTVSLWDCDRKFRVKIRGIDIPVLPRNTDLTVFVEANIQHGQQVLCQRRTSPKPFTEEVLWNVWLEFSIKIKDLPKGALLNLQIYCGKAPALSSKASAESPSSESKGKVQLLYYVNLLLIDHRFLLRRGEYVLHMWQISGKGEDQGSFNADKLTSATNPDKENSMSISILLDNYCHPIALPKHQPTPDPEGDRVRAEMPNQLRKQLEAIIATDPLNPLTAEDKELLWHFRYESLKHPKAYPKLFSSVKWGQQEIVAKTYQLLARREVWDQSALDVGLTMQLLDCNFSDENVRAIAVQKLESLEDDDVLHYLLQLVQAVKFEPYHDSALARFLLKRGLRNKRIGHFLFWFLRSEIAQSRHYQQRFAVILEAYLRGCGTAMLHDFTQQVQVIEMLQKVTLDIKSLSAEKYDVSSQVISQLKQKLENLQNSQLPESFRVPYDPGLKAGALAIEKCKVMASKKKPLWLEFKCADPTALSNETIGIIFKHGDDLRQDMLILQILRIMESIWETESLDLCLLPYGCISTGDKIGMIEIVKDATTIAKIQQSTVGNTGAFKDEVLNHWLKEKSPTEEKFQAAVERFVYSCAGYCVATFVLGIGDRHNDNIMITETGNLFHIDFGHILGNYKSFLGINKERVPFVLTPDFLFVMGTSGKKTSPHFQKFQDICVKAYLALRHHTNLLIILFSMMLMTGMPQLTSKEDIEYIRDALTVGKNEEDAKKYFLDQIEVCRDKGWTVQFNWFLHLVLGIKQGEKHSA
Sequence of Tyrosine-protein kinase JAK2 (O60674 whole entry, canonical isoform): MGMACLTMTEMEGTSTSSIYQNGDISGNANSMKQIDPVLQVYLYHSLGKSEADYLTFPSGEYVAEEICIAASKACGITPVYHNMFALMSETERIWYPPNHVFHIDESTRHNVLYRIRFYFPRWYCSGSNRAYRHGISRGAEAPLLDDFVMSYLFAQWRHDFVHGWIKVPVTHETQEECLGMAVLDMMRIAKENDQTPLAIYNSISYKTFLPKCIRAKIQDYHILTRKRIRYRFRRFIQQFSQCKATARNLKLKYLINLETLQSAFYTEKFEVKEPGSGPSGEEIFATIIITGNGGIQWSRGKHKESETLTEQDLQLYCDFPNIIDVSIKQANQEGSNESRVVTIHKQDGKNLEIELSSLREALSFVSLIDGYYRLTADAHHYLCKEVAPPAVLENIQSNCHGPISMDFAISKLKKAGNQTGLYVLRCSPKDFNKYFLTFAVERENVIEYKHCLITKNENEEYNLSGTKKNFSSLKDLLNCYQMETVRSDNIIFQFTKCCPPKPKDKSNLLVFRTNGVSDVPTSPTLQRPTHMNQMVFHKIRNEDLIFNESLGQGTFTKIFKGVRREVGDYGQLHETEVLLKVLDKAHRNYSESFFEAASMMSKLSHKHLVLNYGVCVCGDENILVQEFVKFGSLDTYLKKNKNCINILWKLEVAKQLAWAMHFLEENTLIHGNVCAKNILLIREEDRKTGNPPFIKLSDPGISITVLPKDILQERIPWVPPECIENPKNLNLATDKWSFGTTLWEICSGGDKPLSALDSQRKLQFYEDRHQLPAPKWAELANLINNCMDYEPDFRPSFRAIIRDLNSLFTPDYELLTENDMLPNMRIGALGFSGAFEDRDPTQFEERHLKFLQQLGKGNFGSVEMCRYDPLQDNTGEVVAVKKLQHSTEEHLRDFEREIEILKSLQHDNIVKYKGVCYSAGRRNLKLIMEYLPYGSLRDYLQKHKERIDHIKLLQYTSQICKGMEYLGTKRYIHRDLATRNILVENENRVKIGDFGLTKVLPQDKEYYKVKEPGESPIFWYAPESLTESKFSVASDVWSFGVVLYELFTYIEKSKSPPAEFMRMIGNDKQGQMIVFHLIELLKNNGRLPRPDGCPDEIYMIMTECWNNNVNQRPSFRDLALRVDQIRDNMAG

c1nc(-c2cn(CC3CO3)nn2)c2cc[nH]c2n1 (stereo not drawn)
IC50 [1]: 2.73 µM
IC50 [2]: 5.62 µM
IC50 [3]: 0.035 µM
IC50 [4]: 2.45 µM

C[C@@H]1COCCN1c1cc(=O)n2c(n1)N(Cc1cncc(Cl)c1)[C@H](C(F)(F)F)CC2
IC50 [5]: > 10 µM
IC50 [6]: > 10 µM
IC50 [7]: > 10 µM
IC50 [8]: > 10 µM

O=C(N[C@@H](CCCCNC1CC1c1ccccc1)C(=O)NCc1ccccc1)c1ccccc1 (stereo partly drawn)
IC50 [9]: > 25 µM

NC1CC1c1cccc(OCC[C@H](NC(=O)c2ccccc2)C(=O)NCc2ccccc2)c1 (stereo partly drawn)
IC50 [10]: 500 µM
IC50 [11]: 230 µM

N[C@@H]1C[C@H]1c1ccc(OCC[C@H](NC(=O)c2ccccc2)C(=O)NCc2ccccc2)cc1
IC50 [10]: > 1000 µM
IC50 [11]: 290 µM

Nc1ccccc1NC(=O)c1ccc(-c2cn(CCc3ccsc3)nn2)cc1
IC50 [12]: > 100 µM
IC50 [13]: > 100 µM
IC50 [14]: > 100 µM
IC50 [15]: > 100 µM

Nc1ccccc1NC(=O)c1ccc(-c2cn(CCc3cccc([N+](=O)[O-])c3)nn2)s1
IC50 [15]: > 100 µM
